Laboratory results as given in publication PMC5460445, “Pharmacokinetic Comparison of 20(R)- and 20(S)-Ginsenoside Rh1 and 20(R)- and 20(S)-Ginsenoside Rg3 in Rat Plasma following Oral Administration of Radix Ginseng Rubra and Sheng-Mai-San Extracts” (Evidence-based Complementary and Alternative Medicine : eCAM, 2017).

Experiment: Pharmacokinetic study in rats after oral administration of Radix Ginseng Rubra or SMS extracts (LC-MS of plasma)
Format: in vivo, Male Sprague-Dawley rats
Parameters: AUC(0–t) / AUC(0–∞): unit not given here
Conditions: for T max / AUC(0–t) / AUC(0–∞) / C max / t 1/2: rat plasma; for AUC(0–t) / AUC(0–∞) / C max / t 1/2: mean ± SD
Excerpt: A Shimadzu 2020 LC-MS system, with an electrospray ionization interface (ESI) source and Shimadzu LCMS LabSolution Workstation software for data processing, was utilized to perform the analytical procedures. The system includes two Shimadzu LC-20AD pumps, a Shimadzu SIL-20A autosampler, a Shimadzu CTO-20A column oven, a CBM-20A system controller, and a Shimadzu DGU-20A3 online degasser. A Q-array-octapole-quadrupole mass analyzer was used as the detector.
The chromatographic separation was carried on a Diamonsil C18 column (150 mm × 4.6 mm id, 5 μm; Dikma, China) with the mobile phase containing 0.5 mmol/L ammonium chloride in double-distilled water (A) and acetonitrile (B) at a flow rate of 1.0 mL/min. A diverter valve was used to direct 0.3 mL/min HPLC elute to MS detector and 0.7 mL/min elute to a waste container. A gradient elution program was used as follows: 0.01→6.0 min, 38% B; 6.0→6.5 min, 38→50% B; 6.5→15.0 min, 50% B; 15.0→15.5 min, 50→38% B. The column temperature was kept constant at 40°C.
The negative-ion electrospray ionization mode was utilized under the following source conditions: curved desolvation line (CDL) temperature, 250°C; block temperature, 400°C; interface temperature, 350°C; nebulizing gas flow rate, 1.5 L/min; drying gas flow rate, 10 L/min. CDL voltage, 0 V; Q-array DC (direct current) voltage, 0 V; interface voltage and RF ([…] frequency) voltage were fixed as those in tuning. The chlorinated adducts of molecular ions [M + Cl]^− of 20(R)-ginsenoside Rh1 and 20(S)-ginsenoside Rh1 at m/z 673.45, 20(R)-ginsenoside Rg3 and 20(S)-ginsenoside Rg3 at m/z 819.60, and digoxin (IS) at m/z 815.60 were monitored in selected ion monitoring (SIM) mode.
Radix Ginseng Rubra and Radix Ophiopogonis were cut into slices and Fructus Schisandrae was scrunched into powder before use. Three drugs were mixed in the ratio of 1 : 3 : 1.5 and the total weight was 110 g. The mixture was extracted with water for three times (1 : 10, 1 : 8, and 1 : 6, w/v) at 100°C, 1 h for each time. The SMS extract was obtained and condensed to 0.55 g/mL crude drug. 20 g Radix Ginseng Rubra was treated as above and the extract was condensed to 0.1 g/mL crude drug. SMS and Radix Ginseng Rubra concentrated solution was subjected to D101 macroporous resin and eluted with water followed by 95% ethanol. The 95% ethanol eluate was further concentrated to 5.5 g/mL crude drug for SMS and 1.0 g/mL crude drug for Radix Ginseng Rubra before use.
An aliquot of 300 μL plasma sample was transferred into a centrifuge tube together with 10 μL of IS solution. After vortex-mixing for 30 s, the analytes and IS were extracted from plasma with n-butanol for three times (1 : 3, 1 : 2, and 1 : 2, v/v). Then the organic layer was transferred into another centrifuge tube and evaporated to dryness at 37°C. Finally, the residue was reconstituted in 20 μL methanol and centrifuged at 12,000 ×g for 10 min; 10 μL aliquot was injected into chromatographic system for analysis.
Male Sprague-Dawley rats, 193–215 g in weight, were supplied by Shanghai Slater Experimental Animal Feeding Center (Shanghai, China). The rats were kept in an air-conditioned animal quarter at a temperature of 22 ± 2°C and a relative humidity of 50 ± 10%. The animals were acclimatized to the facilities for four days and then fasted with free access to water for 12 h prior to experiment. Animal experiments were carried out in accordance with the Regulations of Experimental Animal Administration issued by the Ministry of Science and Technology of China. All animal protocols were approved by the Ethics Committee on the Care and Use of Laboratory Animals of China pharmaceutical University.
Rats were divided randomly into two groups (5 rats in each time point per group) and given an oral dose of 1.35 mL/100 g Radix Ginseng Rubra and SMS extracts, respectively, which was derived from the dose in clinical practice with correction. […]

[1] = oral Radix Ginseng Rubra extract 1.35 mL/100 g

CC(C)=CCCC(C)(O)C1CCC2C1C(O)CC1C2(C)CC(OC2OC(CO)C(O)C(O)C2O)C2C(C)(C)C(O)CCC21C [20(S)-Rh1, 20(S)-ginsenoside Rh1]
AUCC (oral Radix Ginseng Rubra extract 1.35 mL/100 g, dose-corrected AUC0–∞): 159.20 ± 26.03
T max [1]: 0.50 h
AUC(0–t) [1]: 157.53 ± 25.46
AUC(0–∞) [1]: 159.27 ± 26.03
C max [1]: 0.15249 ± 0.03098 µg/mL
t 1/2 [1]: 2.85 ± 0.69 h
T max (oral SMS extract 1.35 mL/100 g): 1.50 h
AUC(0–t) (oral SMS extract 1.35 mL/100 g): 409.48 ± 62.23
AUC(0–∞) (oral SMS extract 1.35 mL/100 g): 419.75 ± 65.31
C max (oral SMS extract 1.35 mL/100 g): 0.19534 ± 0.04491 µg/mL
t 1/2 (oral SMS extract 1.35 mL/100 g): 4.21 ± 1.05^∗ h
